Experimental data published in patent US20120012123A1, “COMPOSITIONS, ARTICLES AND METHODS FOR PREVENTING OR REDUCING TOBACCO-ASSOCIATED DAMAGE” (Technion Research & Development Foundation Ltd., priority 2007, published 2012).

What was measured:
[1] = system: H1299 human lung cancer cells; assay: H1299 cells survival after cigarette smoke (CS) exposure with/without saliva, Trypan Blue exclusion test; format: cell-based
Procedure: During smoke exposure, the cells were put into a smoking sealed chamber (33.5 cm^3) with CS pressure of 0.3 Bar. Control cells were subjected to the same procedures, but exposed only to fresh air. Cells were exposed to CS for one “puffs” every 15 minute for a 2 hours (120 minutes) period (unless indicated otherwise). Cells were used when it becomes confluent and the medium (with/without saliva) volume was compatibly to the dish in use.
The H1299 cells viability was measured at various time points by Trypan Blue exclusion test, both in exposed and control cells.
The medium covering the dish was collected and cells were trypsinized and centrifuged at 1200×g for 10 minutes. Cell pellets were re-suspended in 1 mL of medium and a sample was collect for cell counting. Cells were stained with the vital dye Trypan Blue at final concentration of 0.25% and were placed on hemocytometer. Visual counting was preformed by inverted microscope.
H1299 cells were incubated for 120 minutes with or without the presence of saliva in the culture medium and exposed to CS. […] Cell viability was evaluated by Trypan blue exclusion dye assay.

p53 = assay: Total p53 expression levels, Western blot analysis; format: cell-based, human; settings: 2 mM GSH, exposure of CS 120 minutes and 33% saliva (FIG. 17)
Procedure: Western blot analysis was used to assay the protein expression levels of the P53, using β-actin signal as a loading reference. Samples with equal amount of protein (20 μg protein/lane) were prepared in 2× sample buffer (0.125 M 2-amino-2-(hydroxymethyl)propane-1,3-diol (Tris)-HCl, pH 6.8, glycerol (20% v/v), SDS (4% w/v), 0.14 M β-mercaptoethanol and bromophenol blue (0.005% w/v)). The samples were boiled for 10 minutes and subjected to electrophoresis through 12% SDS-polyacrylamide gel in running buffer, or stored at −20° C. until further use. The gels were then electrophoretically transferred to nitrocellulose membranes for 90 minutes at 90 W, in transfer buffer containing 20 mM Tris-HCl, pH 6.8, 150 mM Glycine and 20% (v/v) methanol. Blots were blocked in 5% non-fat milk in PBS-T (62.5 mM sodium phosphate buffer, pH 7.4, containing 100 mM NaCl and 0.1% (v/v) Tween-20) and then incubated for 2 hours or overnight at 4° C. with rabbit antihuman p53 1:5000 or mouse antihuman β-actin 1:15000. […] Binding of antibodies to the membrane was detected with an EZ-ECL-detection reagent, X-Omat blue XB-1 Kodak scientific Imaging Film for 10 seconds-15 minutes.
The effect of CS on p53 accumulation was analyzed. […] Western blot analysis was performed and the amount of p53 was evaluated.

[2] = system: oral cancer cells (SCC-25); assay: Oral cancer cells (SCC-25) survival after CS exposure with/without saliva, Trypan blue assay; format: cell-based; settings: 5 mM PenA, CS 120 minutes
Source text: In FIG. 18A, (n=14) and (p=0.0024) and in […], (n=7) and (p=0.015).
Similar results were obtained with oral cancer cells (SCC-25).

H1299 cells [3] = assay: Cell viability by Propidium Iodide (PI) fluorescence, flow cytometry, after CS exposure; format: cell-based, human; settings: mean ± SD, n = 4
Procedure: FACS was used to monitor cell-cycle and cell-viability after CS exposure with/without saliva presence. After cells were exposed to ROS attack, medium covering the cells was removed and cells were trypsinized. For cell viability, cell suspension was centrifuged at 1200×g for 10 minutes and the pellets were re-suspended in 0.5 ml of 10 μg/ml Propidium iodide (PI) and incubated for 15 minutes at dark condition, 4° C. The cell suspensions were thereafter analyzed with a flow cytometer, using CellQuest software. […] PI is excluded by viable cells, and penetrates to cell membranes of dead cells. H1299 cells were incubated for 120 minutes with or without the presence of saliva in the culture medium and exposed to CS. […] Cell viability was evaluated by fluorescence assay.

H1299 cells [4] = assay: Protein carbonyl assay (ELISA) on H1299 cells exposed to CS; format: cell-based, human; settings: 5 mM PenA
Procedure: Protein carbonyl concentration was determined by enzyme-linked immunosorbent assay (ELISA), using the Zentech PC Test Kit (Zenith Technology, Dunedin, New Zealand). Briefly, protein cell extractions were allowed to react with a dinitrophenylhydrazine (DNP) solution (200 μl). The DNP-reacted proteins bound non-specifically to an ELISA plate, and the unconjugated DNP and non-protein entities were washed away. The adsorbed DNP-protein was then probed with an anti-DNP-biotin antibody, followed by a streptavidin-linked HRP probe. Then the […] reagent that contained peroxide was added to catalyze the oxidation of TMB. Finally, the reaction was stopped by the addition of a stopping reagent (acid, provided with the kit), and the absorbance was measured for each well at 450 nm using a spectrophotometer. Along with controls and samples, protein carbonyl standards were also included in the assay. The content of the carbonyl protein in the mitochondrial samples was determined as pmol/mg protein, using the standard curve.

H1299 lung cancer cells = assay: Mitochondrial membrane potential (ΔΨm), JC-1 incorporation by flow cytometry; format: cell-based, human; settings: 5 mM agent
Procedure: (§1) For mitochondrial oxidative damage, pellets were re-suspended in 0.5 ml of 10 μg/ml 10-N-nonyl acridine orange (NAO) and incubated for 30 minutes at 37° C. and dark condition. Mitocondrial membrane potential was measured after staining cells with 1 μg/ml JC-1 (5,5′,6,6′-tetrachloro-1,1′,3,3′-tetraethylbenzimidazolyl carbocyanine iodide; Molecular Probes) for 30 minutes at 37° C. in the dark. Uncoupling with carbonyl cyanide p-trifluoromethoxyphenylhydrazone (FCCP) (20 µM for 30 minutes) was used as positive control.
Mitochondrial membrane permeabilization is an essential step leading to apoptosis. Disruption of ΔΨm irreversibly commits cells to undergo death and is an early marker of apoptosis. Furthermore, cigarette smoke was previously shown to induce mitochondrial depolarization in human monocytes. Therefore, reduced ΔΨm, as measured by diminished incorporation of the fluorescent dye JC-1, was used as an early indicator for CS-induced apoptosis.
H1299 lung cancer calls were exposed for 120 minutes to CS with or without saliva. […] JC-1 incorporation was measured by flow cytometry method.

H1299 lung cells = assay: Mitochondrial oxidative damage, NAO binding to cardiolipin by flow cytometry; format: cell-based, human; settings: 5 mM agent, 120 minutes of CS exposure (FIG. 15)
Procedure: as §1
The mitochondrial quality is the amount of all the intra-cellular mitochondria and their content, and it is an important index of mitochondrial injury. Nonyl-Acridine Orange (NAO) is a fluorescent dye that can bind specifically to unoxidizable cardiolipin (CL), a mitochondrial phospholipid, independent of the mitochondria energetic state (ΔΨm). NAO lost its affinity for CL with a hydroperoxide fatty acid (CL-OOH).
NAO flow cytometry was used to measure the quality of H1299 lung cells exposed for 120 minutes to CS with or without saliva.

## CC(=O)N(O)CCCCCNC(=O)CCC(=O)N(O)CCCCCNC(=O)CCC(=O)N(O)CCCCCN [DES, deferoxamine]
[1]; 5 mM DES, CS 120 minutes and saliva (FIG. 12)
  cellular death rate: 20.5%

## N[C@@H](CCC(=O)N[C@@H](CS)C(=O)NCC(=O)O)C(=O)O [GSH, L-c-glutamyl-L-cysteinyl-glycine]
[1]; 2 mM GSH, CS exposure alone, no saliva
  protection of cell survival (in words): no additional protection
[1]; 2 mM GSH, CS exposure, saliva-containing medium (30% v/v) (FIG. 9)
  increase of cell survival: more than 50%
p53
  prevention of p53 downregulation (in words): totally preventing

## CC(C)(S)[C@@H](N)C(=O)O [PenA, D-penicillamine]
[1]; 1 mM and 5 mM PenA, CS exposure, medium or medium + 30% saliva (FIG. 7)
  effect on survival rate, 1 mM versus 5 mM (in words): dose-dependent effect
[1]; 5 mM PenA, 120 minutes of exposure to CS, medium without saliva
  reduction of cells loss: 25%
[1]; 5 mM PenA, CS 120 minutes, medium + 30% saliva (FIG. 7)
  survival rate: 76.4%
[1]; 5 mM PenA, CS 120 minutes, medium alone, no saliva (FIG. 7)
  survival rate: 75.5%
[1]; 5 mM PenA, saliva supplemented to the medium prior to exposure to CS
  reduction of cells loss (in words): Reduction of cells loss was also observed
[1]; PenA, CS 120 minutes, medium alone, percent of control (FIG. 6A)
  increase of cells survival: 12%
[1]; PenA, CS 120 minutes, saliva-containing medium (30% v/v), percent of control (FIG. 6A)
  increase of cell survival: 20%
[2]; absence of saliva (FIG. 18A)
  survival loss: 23%
[2]; saliva added to medium (FIG. 18B)
  survival loss: 22%
H1299 cells [3]; CS 120 minutes + 5 mM PenA + saliva
  Positive dead cells (%): 2.33%
H1299 cells [3]; CS 120 minutes + 5 mM PenA, no saliva
  Positive dead cells (%): 2.98%
H1299 cells [3]; Medium + 5 mM PenA + saliva, no CS
  Positive dead cells (%): 4.15%
H1299 cells [3]; Medium + 5 mM PenA, no CS, no saliva
  Positive dead cells (%): 3.75%
H1299 cells [4]; CS 60 minutes and saliva (FIG. 11)
  protein carbonyl content: 4.02 nmol/mg protein
H1299 cells [4]; CS 60 minutes, medium alone (FIG. 11)
  protein carbonyl content: 4.45 nmol/mg protein
H1299 lung cancer cells; CS 120 minutes alone, no saliva (FIG. 14)
  protection against ΔΨm losses (in words): strong protection
H1299 lung cancer cells; CS 120 minutes and 33% saliva (FIG. 14)
  protection against ΔΨm losses (in words): no significant change
H1299 lung cells
  amount of NAO bound to mitochondrial CL (in words): the same
